Among the data in patent US8688387B2, “Method for the determination of intra- and intermolecular interactions in aqueous solution” (Bayer CropScience AG, priority 2006, dated 2014) are reduced affinity and destabilization of helices values, retold here.

In test [1] the test system is helix. Put plainly: Destabilization of a helix in which thymidin is replaced. Particulars: corresponding to the 16 kJ/mol destabilization. An excerpt: The importance of a complete H-bond network in nucleotide recognition has been investigated. Molecular recognition usually involves several H-bonds. The influence of unsatisfied interfacial H-bond functions can be seen in the destabilization of a helix in which thymidin is replaced by difluortoluoldesoxynucleosid. The experiments have shown that these helices exist in aqueous solution but are destabilized by 16 kJ/mol compared to the helices with thymidin (Moran et al., J. Am. Chem. Soc. 1997, 119: 2056-2057). The authors conclude that the specificity of base pair recognition may not be due to H-bonding but to space filling since the modified base is incorporated into the double helix even though the H-bond cannot be made. […] This value agrees well with the mismatched pairing observed for the incorporation of nucleotides into DNA by polymerase enzymes (1 in 10^3-10^5) (Loeb and Kunkel, Annu. Rev. Biochem. 1982: 52, 429) and the preference of correct tRNA compared to near cognate tRNA in the codon:anticodon recognition (1 in 10^−3.5) (Thompson and Karim, Proc. Natl. Acad. Sc. U.S.A. 1982, 79: 4922-26).

Test [2] has as its system helix. Particulars: aqueous solution, compared to the helices with thymidin; cited from earlier work.

For the compound `Cc1cc([C@H]2C[C@H](O)[C@@H](CO)O2)c(F)cc1F` [difluortoluoldesoxynucleosid], the reduced affinity in the test with helix [1] is reported as 1000-10000 times. Besides, the destabilization of helices in the test on helix [2] is 3.82 kcal/mol.
